Assay results reported in EP0093915A1, “Novel beta-lactam derivatives” (GRUPPO LEPETIT S.P.A., priority 1982, dated 1983).

Assays:
Test in all cases: MIC in microtiter, antibacterial spectrum in vitro
Type in all cases: cell-based
E cloacae P 99 1321 E = settings: Penassay broth (Difco), overnight incubation at 37°C
Description: (§1) MICS (minimum inhibitory concentrations) were determined in "microtiter" using Brain-heart infusion broth (Difco) or Penassay broth (Difco) for gram-positive or gram-negative bacteria, respectively. S. pyogenes and S. pneu- moniae were tested in Todd-Merwitt broth (Difco).
(§2) The inoculum was overnight cultures diluted to obtain 10^3 or […] respectively in the case of gram-positive or gram-negative strains.
(§3) The MIC was defined as the lowest concentration of antibiotic which […] visible growth after overnight incubation at 37 °C.

E. cloacae 45 = settings: Penassay broth (Difco), overnight incubation at 37°C
Description: as §1, §2, §3

E. coli SKF 12140 = settings: Penassay broth (Difco), overnight incubation at 37°C
Description: as §1, §2, §3

S. pyogenes c 203 ISM = settings: Todd-Merwitt broth (Difco), overnight incubation at 37°C
Description: as §1, §2, §3

S. pneumoniae UC 41 = settings: Todd-Merwitt broth (Difco), overnight incubation at 37°C
Description: as §1, §2, §3

K. aerogenes 1522 E = settings: Penassay broth (Difco), overnight incubation at 37°C
Description: as §1, §2, §3

P. vulgaris ATCC 881 = settings: Penassay broth (Difco), overnight incubation at 37°C
Description: as §1, §2, §3

S. aureus ATCC 6538 = settings: Brain-heart infusion broth (Difco), overnight incubation at 37°C
Description: as §1, §2, §3

[1] = system: S. pyogenes c 203 SKF 13400; settings: Todd-Merwitt broth (Difco), overnight incubation at 37°C
Description: as §1, §2, §3

S. aureus Smith = settings: Brain-heart infusion broth (Difco), overnight incubation at 37°C
Description: as §1, §2, §3

Substance | MIC (E cloacae P 99 1321 E) [µg/mL] | MIC (E. cloacae 45) [µg/mL] | MIC (E. coli SKF 12140) [µg/mL] | MIC (S. pyogenes c 203 ISM) [µg/mL] | MIC (S. pneumoniae UC 41) [µg/mL] | MIC (K. aerogenes 1522 E) [µg/mL] | MIC (P. vulgaris ATCC 881) [µg/mL] | MIC (S. aureus ATCC 6538) [µg/mL] | MIC [1] [µg/mL] | MIC (S. aureus Smith) [µg/mL]
Trans-(±)-6-ethyl-7-oxo-2-[[2-(2-pyridylamino)ethyl]-thio]-1-azabicyclo[3.2.0]hept-2-en-2-carboxylic acid S-oxide, (4-nitrophenyl)methyl ester [Example 22] | 25 | 25 | 25 | 0.1 | 0.05 | 12.5 | 3.12 | 0.1 |  | 
Trans-(±)-6-ethyl-7-oxo-2-[[2-[(2-thiazolyl)amino]-ethyl]thio]-1-azabicyclo]3.2.0]hept-2-en-2-carboxylic acid potassium salt [Example 24] | 12.5 | 6.2 | 12.5 |  | 0.1 | 6.2 | 6.2 | 0.1 | 0.1 | 0.4
Trans-(±)-6-ethyl-7-oxo-2-[[2-(2-(2-pyrimidinyl)ethy]-thio]-1-azabicyclo[3.2.0]hept-2-en-2-carboxylic acid S-oxide, (4-nitrophenyl)methyl ester [Example 23] | 3.1 | 3.1 | 6.2 |  | 0.05 | 3.1 | 3.1 | 0.1 | 0.05 | 0.1
